# Measurements taken from patent US20080075796A1, “Compositions and Methods for Controlling Insects” (TyraTech, Inc., priority 2003, published 2008).
# How the values were obtained:
# [1] = tested on: Carpenter ants; experiment: Repellent effect on carpenter ants (treated filter paper); type: in vivo
# Procedure: (§1) Adult insect are randomly selected for testing the repellent effect of compositions and are not individually marked. About 5 insects per replicate are used. About 3 replicates are used for each treatment. Untreated control tests are included with only solvent (acetone) application to an equal sized population/replications, held under identical conditions. A filter paper (about 80 cm^2) is treated with the composition (about 100 mg in […] acetone). After about 3 min of air drying, the filter paper is placed in a dish and repellency against insects is performed. Insects are released to the dish, one insect at a time at the far end of the dish. Using one or more stopwatches, the time spent on either the filter paper or the untreated surface of the dish is recorded up to about 300 seconds. Repellency ratio (RR) is calculated as follows: RR=[(time on control surface−time on treated surface)/total time of test]. If RR>0 then the composition is considered to have a repellant effect, that is to say, an effect, wherein more insects are repelled away from treated surface than the control surface; if RR<0 then the composition is considered not to have a repellant effect.
# (§2) The repellent effect of various plant essential oils is tested by treating a filter paper with the test oils. After about five minutes at room temperature, the paper is placed in a dish and ants are introduced one at a time. The repellency is determined as described above, in Example 14. Oils are tested alone. Additionally, oils are mixed to form compositions, which are then tested.
# For purposes of comparison to the repellent effect of various compositions made of various plant essential oils, the repellency of an insect control agent, the commercial repellent 29% DEET, which may be purchased under the name, REPEL® (Wisconsin Pharmacal Company, Inc, Jackson, Wyo.), is measured against Carpenter ants by treating a filter paper with the 29% DEET. After about five minutes at room temperature, the paper is placed in a dish and ants are introduced one at a time. The repellency is determined as described above, in Example 14.
# as §2, with “of commercial repellent DEET and” for “of”
# [2] = tested on: red ants; experiment: Repellent effect on red ants (visits to treated paper disk); type: in vivo; conditions: for number of trips by red ants to treated paper disk: 100%
# Procedure: Repellent effect of various compositions containing plant essential oils on red ants is tested in the following manner. A paper disk is treated with about 200 μl of each composition and placed in a dish. An untreated paper disk is placed in a control dish. Also, a paper disk is treated with about 200 μl 100% DEET and placed in a dish to compare the repellant effect of the compositions to that of DEET. Red ants are introduced into each dish. Insect behavior and number of visits to the treated paper disk are monitored for about 5 minutes. The number of visits by a red ant to the paper disk is recorded.
# Residuality, with regard to pesticidal effect and repellent effect, is tested by treating a paper disk with the composition being tested, keeping the treated paper disk under laboratory conditions for a predetermined period of time (e.g., 0 min, 6 hours, 1 day, 3 days, 5 days, 7 days), and exposing red ants to the treated paper disk in the above described manners.
# [3] = tested on: Carpenter ants; experiment: Repellent effect on carpenter ants (treated filter paper); type: in vivo; conditions: DEET in concentrations of about 5 to 10%
# Procedure: as §1
# The repellent effect of various plant essential oils is tested by treating a filter paper with the test oils. […] The repellency is determined as described above, in Example 14. […]
# [4] = tested on: Drosophila melanogaster tyramine receptor (TyrR), SEQ ID NO: 2; experiment: Receptor-specific binding of 3H-tyramine in Schneider cells transfected with TyrR; conditions: whole cells, FIG. 1
# Text: Tyramine receptor is amplified from Drosophila melanogaster head cDNA phage library GH that is obtained through the Berkeley Drosophila Genome Project (Baumann, A., 1999, Drosophila melanogaster mRNA for octopamine receptor, splice variant 1B NCBI direct submission, Accession AJ007617). The nucleic acid sequence and the peptide sequence of TyrR are set forth in SEQ ID NO: 1 and SEQ ID NO: 2, respectively. Phage DNA is purified from this library using a liquid culture lysate. (Baxter, et al., 1999, Insect Biochem Mol Biol 29, 461-467). Briefly, oligonucleotides that are used to amplify the open reading frame of the Drosophila tyramine receptor (TyrR) (Han, et al., 1998, J Neurosci 18, 3650-3658; von Nickisch-Rosenegk, et al., 1996. Insect Biochem Mol Biol 26, 817-827) consist of the 5′ oligonucleotide: 5′[…] 3′ (SEQ ID NO: 7) and 3′ oligonucleotide: 5′taatctaga[…] […]
# Cells transfected with the tyramine receptor (about 1×10^6 cells/ml) are cultured in each well of a multi-well plate. […] Solubilized cells are transferred into about 4 ml Liquid Scintillation Solution (LSS) and vigorously vortexed for about 30 sec before counting the radioactivity using a Liquid Scintillation β-counter (Beckman, Model LS1801) (LSC).
# With reference to FIG. 1, receptor specific binding data is expressed as fmol specific binding per 1×10^6 cells and measured as a function of ^3H-tyramine concentration. […]
# [5] = tested on: untransfected Schneider cells; experiment: Response of untransfected Schneider cells to tyramine; type: binding, Drosophila; conditions: concentration as high as about 100 μM
# [6] = tested on: control Schneider cells; experiment: Intracellular Ca2+ mobilization in control Schneider cells; type: cell-based, Drosophila; conditions: FIG. 22
# Procedure: Intracellular calcium ion concentrations ([Ca^2+]i) are measured by using the acetoxymethyl (AM) ester of the fluorescent indicator fura-2 (Enan, et al., Biochem. Pharmacol vol 51, 447-454). In this study, cells expressing tyramine receptor are grown under standard conditions. A cell suspension is prepared in assay buffer (140 mM NaCL, 10 mM HEPES, 10 mM glucose, 5 mM KCl, 1 mM CaCl2, 1 mM MgCl2) and cell number adjusted to about 2×10^6 cells per ml. Briefly, about 1.0 ml cell suspension (about 2×10^6 cells) is incubated with about 5 μM Fura 2/AM for about 30 min at about 28° C. After incubation, the cells are pelleted at about 3700 rpm for about 10 sec at room temperature and then resuspended in about 1.5 ml assay buffer. [Ca^2+]i changes are analyzed in spectrofluorometer in the presence and absence of test chemicals. Excitation wave lengths are about 340 nm (generated by Ca^2+-bound fura-2) and about 380 nm (corresponding to Ca^2+-free fura-2). The fluorescence intensity is monitored at an emission wave length of about 510 nm. No absorbance of fluorescence artifacts are observed with any of the compounds used. The ratio of about 340/380 nm is calculated and plotted as a function of time.
# Changes in intracellular Ca^2+ levels are calculated based on the difference between the 340/380 fluorescence ratios before and after approximately 150 seconds of the treatment.
# [7] = tested on: head lice Pediculus humanus capitus; experiment: Pesticidal effect on head lice; type: in vivo; conditions: time to kill 100% of the lice, dissolved in water
# Procedure: (§3) Live adult head lice Pediculus humanus capitus are collected from female and male children between the age of about 4 and 11 living in the Karmos area, Alexandria, Egypt. The insects are collected using fine-toothed louse detector comb and pooled together. The collected lice are kept in dishes and used in the studies within about 30 minutes of their collection.
# (§4) Various concentrations of the compositions being tested are prepared in water To allow the pesticidal effect of these compositions to be compared to that of a commercially available lice-killing agent, ivermectin, is dissolved in water. About 1 ml of each concentration of the compositions are applied to a dish, about 1 ml of the ivermectin solution is applied to a dish, and about 1 ml of water is applied to a control dish. About 10 adult head lice are introduced to each dish.
# (§5) Treated and control dishes are kept under continuous observation and LT100 is observed. LT refers to the time required to kill a given percentage of insects; thus, LT100 refers to the time required to kill 100% of the lice. Head lice is considered dead if no response to a hard object is found.
# [8] = tested on: head lice Pediculus humanus capitus; experiment: Pesticidal effect on head lice (LT100); type: in vivo; conditions: about 1 ml in dish, about 10 adult head lice
# Procedure: as §3, §4, §5
molecule,measurement,setting,value
CCN(CC)C(=O)c1cccc(C)c1 [DEET],Sec on T,"[1]; 5% DEET, Day 0",282 (10) Sec
same,Sec on T,"[1]; 10% DEET, Day 0",260 (6) Sec
same,sec. on T surface,"[1]; 29% DEET (REPEL), Day 0",02.4 s
same,repellency,"[1]; DEET about 5 to 10%, in words",no signs of repellency
same,number of trips by the red ants to the treated paper disks,[2]; 0 min after treatment of disk,0
same,residuality of repellent effect,"[2]; 100% DEET, in words",begins to loose potency after 1 day
same,number of trips by red ants to treated paper disk,"[2]; 0 min after treatment, about 5 minutes observation",0
same,number of trips by red ants to treated paper disk,[2]; 6 hours after treatment,0
same,number of trips by red ants to treated paper disk,[2]; 1 day after treatment,1
same,number of trips by red ants to treated paper disk,[2]; 3 days after treatment,2
same,number of trips by red ants to treated paper disk,[2]; 5 days after treatment,2
same,number of trips by red ants to treated paper disk,[2]; 7 days after treatment,2
same,number of trips by the red ants to the treated paper disks,[2]; 6 hours after treatment of disk,0
same,number of trips by the red ants to the treated paper disks,[2]; 1 day after treatment of disk,1
same,number of trips by the red ants to the treated paper disks,[2]; 3 days after treatment of disk,2
same,number of trips by the red ants to the treated paper disks,[2]; 5 days after treatment of disk,2
same,number of trips by the red ants to the treated paper disks,[2]; 7 days after treatment of disk,2
same,repellency,[3],no signs of repellency
"NCCc1ccc(O)cc1 [Tyramine, tyramine]",3H-tyramine concentration at which maximum specific binding occurs,[4],about 5 nM
same,response of untransfected cells,[5],do not respond
same,mobilization of Ca2+ in control cells,[6],induce mobilization of Ca^2+
ivermectin [listing 1 of 2 here],LT100,[7],5 min
ivermectin [listing 2 of 2 here],LT100 (time required to kill 100% of the lice),[8],5 min
